Measurements as given in ChEMBL document CHEMBL1138391, “Syntheses of hydroxy substituted 2-phenyl-naphthalenes as inhibitors of tyrosinase” (Bioorg Med Chem Lett, 2007).

target: T1, Tyrosinase (Agaricus bisporus, UniProt O42713)
T1 sequence (O42713 whole entry): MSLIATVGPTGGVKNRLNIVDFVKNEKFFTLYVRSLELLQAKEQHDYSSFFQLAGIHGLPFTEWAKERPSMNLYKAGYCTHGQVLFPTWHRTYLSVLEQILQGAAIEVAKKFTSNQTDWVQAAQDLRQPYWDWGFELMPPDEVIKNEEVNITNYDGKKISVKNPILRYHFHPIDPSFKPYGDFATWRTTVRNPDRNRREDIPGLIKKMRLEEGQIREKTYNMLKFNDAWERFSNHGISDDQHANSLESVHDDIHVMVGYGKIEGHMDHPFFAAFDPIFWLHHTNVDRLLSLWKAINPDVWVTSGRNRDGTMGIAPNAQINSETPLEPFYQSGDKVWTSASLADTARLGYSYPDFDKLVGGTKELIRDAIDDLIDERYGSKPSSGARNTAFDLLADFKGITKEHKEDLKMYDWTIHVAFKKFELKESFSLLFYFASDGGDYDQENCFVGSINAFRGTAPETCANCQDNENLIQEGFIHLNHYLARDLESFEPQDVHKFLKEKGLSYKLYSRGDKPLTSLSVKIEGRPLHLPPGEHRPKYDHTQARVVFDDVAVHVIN
Description: Inhibition of mushroom tyrosinase

Row | SMILES | IC50 [µM]
1 | Oc1ccc(/C=C/c2cc(O)cc(O)c2)cc1 [RESVERATROL] | 55.6
2 | Oc1ccc(-c2ccc3cc(O)ccc3c2)c(O)c1 | 0.034
3 | Oc1cccc(-c2ccc3cc(O)ccc3c2)c1 | 6.4
4 | Oc1ccc(O)cc1 [HYDROQUINONE] | 33.5
5 | Oc1cc(O)cc(-c2ccc3cc(O)cc(O)c3c2)c1 | 0.49
6 | Oc1cc(O)cc(-c2ccc3cc(O)ccc3c2)c1 | 16.5
7 | Oc1ccc2cc(-c3cc(O)c(O)c(O)c3)ccc2c1 | 2.95
